Patent US4175081A, “5-Substituted thiadiazole ureas” (priority 1977, dated 1979)

Tests used:
[1] = system: Crabgrass (CG); test: Pre-emergence herbicide test; format: in vivo, Digitaria sanquinalis; settings: Digitaria sanguinalis, pre-emergence, 336 h, two weeks after treatment
Method in brief: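 Crabgrass (Digitaria sanquinalis) was surface seeded in 3' plastic pots of potting soil, covered with screened soil, and watered by sub-irrigation in greenhouse trays. Pots were seeded one day before spraying in a hood with a moving belt and fixed nozzle. Plants stayed in the greenhouse on sub-irrigation, and pre-emergence control was rated visually two weeks after treatment.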

[2] = system: Yellow foxtail grass (YF); test: Pre-emergence herbicide test; format: in vivo, Setaria glauca; settings: Setaria, 336 h, 2 lb/acre, two weeks after treatment
Method in brief: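 Seeds surface-sown in potting soil one day before spraying; compounds applied pre-emergence at 8 or 4 lbs/acre in 38 gallons/acre spray. Pots held in greenhouse with sub-irrigation only. Injury or control rated visually two weeks after treatment.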

[3] = system: Johnson grass (JG); test: Pre-emergence herbicide test; format: in vivo, Sorgum helepense; settings: Sorghum halepense, 336 h, two weeks after treatment
Method in brief: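 Pots seeded one day before spraying; compound applied pre-emergence at 8 lbs/acre (or 4 lbs/acre) in 38 gallons/acre spray volume. Sub-irrigated in greenhouse; injury/control rated visually two weeks after treatment.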

[4] = system: Barnyard grass (BG); test: Pre-emergence herbicide test; format: in vivo; settings: Echinochloa crus-galli, 336 h, two weeks after treatment
Method in brief: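 Barnyard grass surface-seeded in potting soil and sprayed pre-emergence one day after seeding, at 8 or 4 lb compound/acre in 38 gal/acre spray volume. Pots kept in greenhouse with sub-irrigation only; injury or control rated visually two weeks after treatment.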

[5] = system: Amaranth pigweed (PW); test: Pre-emergence herbicide test; format: in vivo, Amaranthus retroflexus; settings: 336 h, 2 lb/acre, two weeks after treatment
Method in brief: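 Pigweed was surface-seeded in potted soil one day before spraying at 8 lbs compound per acre, or 4 lbs/acre, in 38 gallons per acre. Pots were kept in the greenhouse with sub-irrigation only; injury or control was rated visually two weeks after treatment.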

[6] = system: Turnip (TP); test: Pre-emergence herbicide test; format: in vivo, Brassica sp.; settings: Brassica rapa, pre-emergence, 336 h, two weeks after treatment
Method in brief: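 Turnip (Brassica sp.) seeds were surface sown in 3' plastic pots of potting soil, covered with a thin layer of screened soil, and sub-irrigated in greenhouse trays. Pots were seeded one day ahead of treatment, sprayed pre-emergence under a hood with a fixed nozzle and moving belt, then kept in the greenhouse.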

[7] = system: Cotton (CT); test: Pre-emergence herbicide test; format: in vivo, Gossypium hirsutum var. DPL smooth leaf; settings: Gossypium hirsutum, 336 h, two weeks after treatment
Method in brief: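 Crop and weed species seeded one day before treatment, then sprayed pre-emergence at 8 lbs actual compound per acre (also 4 lbs/acre formulations) in 38 gallons per acre. Pots kept in greenhouse with sub-irrigation only; injury or control visually rated two weeks after treatment.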

[8] = system: Corn (CN); test: Pre-emergence herbicide test; format: in vivo; settings: Zea mays, 336 h, two weeks after treatment
Method in brief: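 Four corn seeds per pot, sown at seed-diameter depth one day before spraying, got soil surface treatment at 8 lbs/acre (4 lbs/acre formulations also prepared) in 38 gallons/acre. Pots were greenhouse-held with sub-irrigation only. Injury or control was scored visually two weeks after treatment.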

[9] = system: Bean (BN); test: Pre-emergence herbicide test; format: in vivo, Phaseolus vulgaris var. Black Valentine; settings: Phaseolus vulgaris, 336 h, two weeks after treatment
Method in brief: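 Black Valentine bean was seeded in potting soil one day before spraying. Compound was applied pre-emergence at 8 lbs/acre (also 4 lbs/acre) in 38 gallons per acre. Plants were sub-irrigated and injury or control was rated visually after two weeks.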

[10] = system: Crabgrass (CG); test: Post-emergence herbicide test; format: in vivo, Digitaria sanquinalis; settings: Digitaria sanguinalis, post-emergence, 336 h, two weeks after treatment
Method in brief: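 Crabgrass (Digitaria sanquinalis) was surface seeded individually in 3' plastic pots of potting soil, covered with screened soil, and watered by sub-irrigation in greenhouse trays. Planting was staggered so seedlings reached the target stage together. Post-emergence sprays were applied in a hood with a removable belt and fixed nozzle, and control was visually rated two weeks after treatment.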

[11] = system: Yellow foxtail grass (YF); test: Post-emergence herbicide test; format: in vivo, Setaria glauca; settings: Setaria, 336 h, 2 lb/acre, two weeks after treatment
Method in brief: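 Potted seedlings grown in greenhouse, planting staggered to reach the target stage together, then sprayed post-emergence at 8 lbs actual compound/acre in 38 gallons/acre (4 lbs/acre formulations also prepared). Sub-irrigated afterwards. Injury or control rated visually two weeks after treatment.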

[12] = system: Johnson grass (JG); test: Post-emergence herbicide test; format: in vivo, Sorgum helepense; settings: Sorghum halepense, 336 h, two weeks after treatment
Method in brief: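 Greenhouse pot-grown seedlings sprayed post-emergence at 8 lbs compound per acre (some at 4 lbs/acre) in 38 gallons per acre spray volume. Sub-irrigated thereafter. Injury/control rated visually two weeks after treatment.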

[13] = system: Barnyard grass (BG); test: Post-emergence herbicide test; format: in vivo; settings: Echinochloa crus-galli, 336 h, 2 lb/acre, two weeks after treatment
Method in brief: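 Greenhouse pot-grown barnyard grass seedlings sprayed post-emergence at 8 lbs active compound per acre (some at 4 lbs/acre) in 38 gallons per acre, then sub-irrigated. Injury or control rated visually two weeks after treatment.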

[14] = system: Amaranth pigweed (PW); test: Post-emergence herbicide test; format: in vivo, Amaranthus retroflexus; settings: 336 h, 2 lb/acre, two weeks after treatment
Method in brief: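 Pot-grown pigweed was sprayed post-emergence at the 1–2 true-leaf stage with compound at rates equivalent to 8 lbs per acre (formulations also prepared for 4 lbs/acre) in 38 gallons per acre, using a hood with fixed nozzle. Plants were sub-irrigated in the greenhouse, and injury or control was rated visually two weeks after treatment.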

[15] = system: Turnip (TP); test: Post-emergence herbicide test; format: in vivo, Brassica sp.; settings: Brassica rapa, post-emergence, 336 h, two weeks after treatment
Method in brief: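 A greenhouse post-emergence herbicide test on turnip. Seeds were sown on the surface of potting soil in 3' plastic pots, lightly covered with screened soil and watered from below. Planting was timed so seedlings had 1 or 2 true leaves above the cotyledons at spraying, done in a hood with a fixed nozzle. Control or injury was scored by eye after two weeks.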

[16] = system: Cotton (CT); test: Post-emergence herbicide test; format: in vivo, Gossypium hirsutum var. DPL smooth leaf; settings: Gossypium hirsutum, post-emergence, 336 h, two weeks after treatment
Method in brief: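 Cotton (Gossypium hirsutum var. DPL smooth leaf) was grown in 3' plastic pots of potting soil, four seeds per pot, planted at a depth equal to the seed diameter and watered by sub-irrigation. At the stage of expanded cotyledons with the first true leaf 1' long, plants were sprayed post-emergence in a hood with a fixed nozzle over a moving belt. Percent control was rated visually two weeks later.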

[17] = system: Corn (CN); test: Post-emergence herbicide test; format: in vivo; settings: Zea mays, 336 h, two weeks after treatment
Method in brief: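 Greenhouse seedlings grown in potting soil and sprayed post-emergence at 8 lbs compound/acre (formulations also made for 4 lbs/acre) in 38 gallons/acre spray volume. Watering by sub-irrigation only. Injury or control rated visually two weeks after treatment.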

[18] = system: Bean (BN); test: Post-emergence herbicide test; format: in vivo, Phaseolus vulgaris var. Black Valentine; settings: Phaseolus vulgaris, post-emergence, 336 h, two weeks after treatment
Method in brief: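 Snapbean (Phaseolus vulgaris var. Black Valentine) was tested post-emergence. Four seeds were sown in 3' plastic pots of potting soil at a depth equal to the seed diameter, then sub-irrigated in greenhouse trays. Planting dates were staggered so plants were sprayed once primary leaves had expanded, with the growing point at the primary leaf nodes.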

[19] = Acute oral toxicity in rats; settings: rat, in vivo

**Q.** For `CNC(=O)Nc1nnc(C(C)(C)C)s1` [Example 86], which pest or weed control ([1]; 2 lb/acre) is on record?
**A.** Its pest or weed control is 90%.

**Q.** And the pest or weed control at 8966.8 g/ha ([1]; 8 lb/acre)?
**A.** Its pest or weed control at 8966.8 g/ha is 100%.

**Q.** What about the pest or weed control at 2241.7 g/ha [2] of the same compound?
**A.** The pest or weed control at 2241.7 g/ha was 90%.

**Q.** What about the pest or weed control at 2241.7 g/ha ([3]; 2 lb/acre) of the same compound?
**A.** Its pest or weed control at 2241.7 g/ha is 60%.

**Q.** And the pest or weed control at 8966.8 g/ha ([3]; 8 lb/acre)?
**A.** The pest or weed control at 8966.8 g/ha was 50%.

**Q.** What about the pest or weed control at 2241.7 g/ha ([4]; 2 lb/acre) of the same compound?
**A.** Its pest or weed control at 2241.7 g/ha is 60%.

**Q.** And the pest or weed control at 8966.8 g/ha ([4]; 8 lb/acre)?
**A.** Its pest or weed control at 8966.8 g/ha is 80%.

**Q.** And the pest or weed control at 2241.7 g/ha [5]?
**A.** Its pest or weed control at 2241.7 g/ha is 100%.

**Q.** And the pest or weed control at 2241.7 g/ha ([6]; 2 lb/acre)?
**A.** The pest or weed control at 2241.7 g/ha was 100%.

**Q.** And the pest or weed control at 8966.8 g/ha ([6]; 8 lb/acre)?
**A.** The pest or weed control at 8966.8 g/ha was 100%.

**Q.** And the pest or weed control at 2241.7 g/ha ([7]; 2 lb/acre)?
**A.** Its pest or weed control at 2241.7 g/ha is 10%.

**Q.** What about the pest or weed control at 8966.8 g/ha ([7]; 8 lb/acre) of the same compound?
**A.** Its pest or weed control at 8966.8 g/ha is 50%.

**Q.** And the pest or weed control at 2241.7 g/ha ([8]; 2 lb/acre)?
**A.** The pest or weed control at 2241.7 g/ha was 10%.

**Q.** What about the pest or weed control at 8966.8 g/ha ([8]; 8 lb/acre) of the same compound?
**A.** The pest or weed control at 8966.8 g/ha was 60%.

**Q.** And the pest or weed control at 2241.7 g/ha ([9]; 2 lb/acre)?
**A.** Its pest or weed control at 2241.7 g/ha is 30%.

**Q.** What about the pest or weed control at 8966.8 g/ha ([9]; 8 lb/acre) of the same compound?
**A.** Its pest or weed control at 8966.8 g/ha is 100%.

**Q.** And the pest or weed control ([10]; 2 lb/acre)?
**A.** Its pest or weed control is 50%.

**Q.** What about the pest or weed control at 8966.8 g/ha ([10]; 8 lb/acre) of the same compound?
**A.** Its pest or weed control at 8966.8 g/ha is 80%.

**Q.** And the pest or weed control [11]?
**A.** The pest or weed control was 70%.

**Q.** What about the pest or weed control ([12]; 2 lb/acre) of the same compound?
**A.** Its pest or weed control is 80%.

**Q.** And the pest or weed control at 8966.8 g/ha ([12]; 8 lb/acre)?
**A.** Its pest or weed control at 8966.8 g/ha is 100%.

**Q.** And the pest or weed control at 2241.7 g/ha [13]?
**A.** The pest or weed control at 2241.7 g/ha was 50%.

**Q.** What about the pest or weed control at 2241.7 g/ha [14] of the same compound?
**A.** Its pest or weed control at 2241.7 g/ha is 100%.

**Q.** What about the pest or weed control at 2241.7 g/ha ([15]; 2 lb/acre) of the same compound?
**A.** Its pest or weed control at 2241.7 g/ha is 100%.

**Q.** And the pest or weed control at 8966.8 g/ha ([15]; 8 lb/acre)?
**A.** The pest or weed control at 8966.8 g/ha was 100%.

**Q.** And the pest or weed control at 2241.7 g/ha ([16]; 2 lb/acre)?
**A.** Its pest or weed control at 2241.7 g/ha is 100%.

**Q.** And the pest or weed control at 8966.8 g/ha ([16]; 8 lb/acre)?
**A.** Its pest or weed control at 8966.8 g/ha is 100%.

**Q.** What about the pest or weed control ([17]; 2 lb/acre) of the same compound?
**A.** Its pest or weed control is 40%.

**Q.** What about the pest or weed control at 8966.8 g/ha ([17]; 8 lb/acre) of the same compound?
**A.** Its pest or weed control at 8966.8 g/ha is 100%.

**Q.** And the pest or weed control at 2241.7 g/ha ([18]; 2 lb/acre)?
**A.** Its pest or weed control at 2241.7 g/ha is 100%.

**Q.** And the pest or weed control at 8966.8 g/ha ([18]; 8 lb/acre)?
**A.** Its pest or weed control at 8966.8 g/ha is 100%.

**Q.** What about the LD50 [19] of the same compound?
**A.** The LD50 was 2700 mg/kg.
